# In publication PMC10910063, “Helical domain of hGBP3 cannot stimulate the second phosphate cleavage of GTP” (The Journal of Biological Chemistry, 2024):
# Biological target: T1, hGBP1^311 (Homo sapiens, UniProt P32455)
# T1 construct: gene GBP1; truncated, without the helical domain; purified as previously reported
# T1 sequence (P32455 1-311): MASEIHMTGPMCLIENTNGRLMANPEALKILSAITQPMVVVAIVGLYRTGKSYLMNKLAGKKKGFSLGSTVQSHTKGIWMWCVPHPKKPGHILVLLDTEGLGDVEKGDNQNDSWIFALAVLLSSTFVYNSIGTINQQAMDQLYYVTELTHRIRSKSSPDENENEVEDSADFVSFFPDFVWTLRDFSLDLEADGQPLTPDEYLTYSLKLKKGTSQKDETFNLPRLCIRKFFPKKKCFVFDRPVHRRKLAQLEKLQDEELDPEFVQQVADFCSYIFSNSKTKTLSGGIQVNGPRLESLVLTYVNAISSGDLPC
# Experiment: radiolabelled [α-32P]GTP, thin-layer chromatography
# Format: biochemical
# Details: Tris pH 7.5, 5 mM MgCl2, 37 °C
smiles,measurement,value
Nc1nc2c(ncn2[C@@H]2O[C@H](COP(=O)(O)OP(=O)(O)OP(=O)(O)O)[C@@H](O)[C@H]2O)c(=O)[nH]1 [GTP],"radiolabelled [α-32P]GTP, thin-layer chromatography",the deletion of the helical domain of hGBP1 significantly reduced GMP production
